Data from article PMC11965660, “Isobavachalcone ameliorates Alzheimer disease pathology by autophagy-mediated clearance of amyloid beta and inhibition of NLRP3 inflammasome in primary astrocytes and 5x-FAD mice” (Frontiers in Pharmacology, 2025).

What was measured:
[1] = system: autophagy pathway proteins; assay: Immunoblotting of autophagy pathway proteins in primary astrocytes; type: cell-based, C57BL/6J mice
Protocol: Primary astrocytes were cultured from C57BL/6J (Jax:000664) mice pups with the approval of Institutional Animal Ethics Committee (IAEC) of CSIR-Indian Institute of Integrative Medicine (IIIM), Jammu, under IAEC number 287/80/2/2022 and 305/81/8/2022. The astrocytes were isolated from the brain of 3–4 days-old mice pups and were grown in 10% FBS-supplemented DMEM media. Briefly, pups were sacrificed through decapitation and sterilized with 70% ethanol. Brain was exposed and isolated. Olfactory lobes and cerebellum were removed with fine blade. The cortical region separated was collected in incomplete media (media without fetal bovine serum) and cut into small pieces. After that, these cortices were incubated at 37°C in 0.25% trypsin for 30 min, with gentle shaking after every 10 min. Trypsin activity was neutralized with complete media and cells were collected using a 70-micron cell strainer followed by centrifugation at 300 g for 5 min. The pellet was dissolved in fresh media and cells were grown in cell culture flasks and were maintained at 37°C in a CO2 incubator. Microglia and oligodendrocytes were separated from the underlying astrocyte layer after 6-7 days by shaking the flask for 6 h at 240 rpm. Cultures astrocytes within 2-4 passage were used for all the experiments.
(§1) Cellular lysates were prepared using radio immuno precipitation assay (RIPA) buffer for protein analysis. Briefly, the cell pellet was dissolved in RIPA buffer containing sodium fluoride, sodium orthovanadate, phenyl methyl sulfonyl fluoride (PMSF) and 1% protease inhibitor cocktail for 1 h with vertexing sample every 15 min. The supernatant was collected after high-speed centrifugation of samples for 20 min at 4°C. For analysis of proteins in mice hippocampi, the hippocampi isolated from mice brains was immediately washed with saline and stored in liquid nitrogen. For lysates preparation, tissue was homogenized in RIPA buffer substituted with sodium fluoride, sodium orthovanadate, phenyl methyl sulfonyl fluoride and 1% protease inhibitor cocktail. Total protein was measured using Bradford assay. Proteins were separated using SDS-PAGE and then transferred from gel to PVDF membrane. The protein of interest was labeled with a specific primary antibody overnight at 4°C. Further, the blot was incubated with corresponding HRP-conjugated secondary antibody for 1 h at room temperature. The band were visualized in the Genaxy Chemi Doc imaging system (Make: Syngene, Maryland, USA; Model: G: BOX, XT-4). Densitometry analysis of all the immunoblots was performed by using ImageJ software. Band density of proteins was normalized with β-actin. The phosphorylated proteins were normalized with their total forms.

[2] = system: NLRP3 inflammasome; assay: NLRP3 inflammasome activation in primary astrocytes: immunoblotting, ASC oligomers and specks, co-localization; type: cell-based, C57BL/6J mice; details: for co-localization of CASP1 and NLRP3: 10 μM
Protocol: Primary astrocytes were first treated with microglia conditional media to induce astrogliosis ([Liddelow et al., 2017]). For this, the microglia (N9) cell line, provided by Dr. Anirban Basu (National Brain Research Centre, Gurgaon, India) was cultured in RPMI-1640. N9 cells (Passage 28-35) were seeded in 24 well plate at density 0.05 × 10^6 per well. The cells were treated with 1 μg/ml LPS, and supernatant was collected after 24 h. Seeded astrocytes were then treated with the LPS stimulated N9 cells supernatant for 24 h. Thereafter, the treatment for NLRP3 inflammasome activation was given, including priming with fresh 1 μg/ml LPS for 4 h, followed by washing and IBC or MCC950 (100 nM) treatment for 1 h in incomplete media (media without fetal bovine serum). ATP at 5 mM concentration was used as secondary signal for 30 min.
Following treatment with 5 and 10 μM IBC (1 h) and NLRP3 inflammasome activation in primary astrocytes, cells were lysed with ice-cold buffer (KCl [150 mM], HEPES-KOH [20 mM, pH 7.5], NP-40 [1%], sodium orthovanadate [1 mM], PMSF [0.1 mM] and protease inhibitor cocktail [1%]). Cells were centrifuged at 300 g for 10 min. The supernatant was collected for western blot analysis of total ASC protein. The pellet was washed with cold PBS and resuspended in 500 µL cold PBS. For the crosslinking of ASC, 2 mM of […] was added to the resuspended pellet and incubated at 37°C for 30 min in water bath. After centrifugation, the supernatant was discarded, and a 2X Laemmli buffer was added to the pellet. The samples were heated at 95°C for 5 min and subjected to western blotting for analyzing ASC oligomers.
Levels of cleaved IL-1β and caspase-1 were analyzed in cellular supernatant. The supernatant collected after the end of the experiment was incubated with StartaClean resin for 1 h at 4°C. Samples were kept on rotation so that the resin could bind properly with proteins. The concentrated resin pellet was obtained by centrifuging samples at 300 g for 10 min 2X Laemmli buffer was added to the resin pellet, heated at 95°C for 10 min, and subjected to western blotting.
as §1
Cells were seeded on coverslips in 6 well plates. After treatments, cells were fixed with 4% paraformaldehyde (PFA) for 15 min and permeabilized with 0.1% Triton-X 100 for 7 min. Blocking was done for 30 min with 2% BSA, followed by overnight incubation with primary antibody. Alexa fluor conjugated secondary antibody incubation was given to cells for 1 h for labeling. The nucleus was stained with 4,6-diamidino-2-phenylindole (DAPI) (1 μg/mL) for 10 min. […]

[3] = LPS + ATP, 5 and 10 μM, western blot
[4] = in the presence of LPS and ATP, 5 and 10 μM

CC(C)=CCc1c(O)ccc(C(=O)/C=C/c2ccc(O)cc2)c1O [IBC, isobavachalcone]
ATG5 level ([1]; 24 h): upregulated
ATG7 level ([1]; 24 h): upregulated
BECN1 expression ([1]; 24 h): did not show any change
FIP200 phosphorylation ([1]; 24 h): increased phosphorylation
MTOR level ([1]; 24 h): no change
ULK1 phosphorylation ([1]; 24 h): phosphorylated at Ser 317
pLKB1 (Ser 428) level ([1]; 24 h): no change
AMPK phosphorylation (Thr 172) ([1]; 24 h, 5, 10 and 20 μM): concentration-dependent increase
BCL2 level ([1]; 24 h, 5, 10 and 20 μM): marked decline
LC3B-II level ([1]; 24 h, 5, 10 and 20 μM): significant increase
pCAMKK2 (Ser 511) level ([1]; 24 h, 5, 10 and 20 μM): significantly upregulated
SQSTM1 level ([1]; 24 h, 10 and 20 μM): reducing levels
ASC speck formation ([2]; 5 μM and 10 µM, vs cells induced with ATP): highly significant (p < 0.0001) reduction
co-localization of CASP1 and NLRP3 ([2]; in the presence of siAMPK): did not affect the co-localization
co-localization of CASP1 and NLRP3 ([2]; vs LPS + ATP): reduced the co-localization
ASC monomer, dimer, and oligomer formation ([2]; LPS + ATP, 5 and 10 μM): inhibited
cleaved CASP1 in supernatant [2, 3]: reduced release
cleaved IL-1β in supernatant [2, 3]: reduced release
NLRP3 protein expression ([2]; LPS + ATP, western blot): no change
AMPK phosphorylation (Thr 172) [2, 4]: significantly enhanced phosphorylation
LC3B-II level [2, 4]: marked increase
SQSTM1 level [2, 4]: significant decline
inhibitory effect on IL-1b and CASP1 under AMPK knockdown ([2]; siAMPK, LPS + ATP): completely reversed
